Test results reported in patent publication US20180298024A1, “CORTISTATIN ANALOGS AND USES THEREOF” (President and Fellows of Harvard College, priority 2015, published 2018).
Where “and” joins values, the source holds several entries; their conditions need not be identical. Equal values may be shown once.

Tests used:
MUSK = target: T1, MUSK (Homo sapiens, UniProt O15146); test: 33PanQinase radiometric kinase assay, MUSK; type: biochemical
T1 construct: purchased ProQinase; host or cells: Sf9 insect cells or E. coli
T1 sequence (O15146 24-869): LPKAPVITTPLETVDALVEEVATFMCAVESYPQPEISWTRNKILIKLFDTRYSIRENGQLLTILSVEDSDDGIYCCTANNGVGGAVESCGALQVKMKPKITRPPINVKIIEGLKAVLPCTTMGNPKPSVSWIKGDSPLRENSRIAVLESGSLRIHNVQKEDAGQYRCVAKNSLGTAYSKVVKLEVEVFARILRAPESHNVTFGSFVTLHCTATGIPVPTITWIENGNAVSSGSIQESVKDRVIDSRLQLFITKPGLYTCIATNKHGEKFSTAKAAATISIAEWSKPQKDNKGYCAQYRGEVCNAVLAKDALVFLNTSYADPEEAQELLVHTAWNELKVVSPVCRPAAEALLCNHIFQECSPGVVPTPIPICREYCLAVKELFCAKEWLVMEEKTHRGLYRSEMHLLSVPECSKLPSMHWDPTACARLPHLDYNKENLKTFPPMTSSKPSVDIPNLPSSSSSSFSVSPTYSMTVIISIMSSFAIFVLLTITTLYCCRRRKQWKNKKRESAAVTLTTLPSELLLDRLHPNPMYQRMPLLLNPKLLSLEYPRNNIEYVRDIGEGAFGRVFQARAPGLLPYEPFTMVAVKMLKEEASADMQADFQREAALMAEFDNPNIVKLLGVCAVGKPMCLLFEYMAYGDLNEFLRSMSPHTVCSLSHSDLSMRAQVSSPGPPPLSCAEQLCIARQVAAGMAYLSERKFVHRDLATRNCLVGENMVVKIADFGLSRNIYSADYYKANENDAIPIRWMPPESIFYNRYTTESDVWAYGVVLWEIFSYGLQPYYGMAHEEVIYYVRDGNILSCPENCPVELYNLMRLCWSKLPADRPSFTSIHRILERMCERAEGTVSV
Experimental: (§1) A radiometric protein kinase assay (33PanQinase Activity Assay) was used for measuring the kinase activity of the 320 protein kinases. All kinase assays were performed in 96-well FlashPlates™ from Perkin Elmer (Boston, Mass., USA) in a 50 μl reaction volume. The reaction cocktail was pipetted in 4 steps in the following order: • 1. 10 μl of non-radioactive ATP solution (in H2O) • 2. 25 μl of assay buffer/[γ-33P]-ATP mixture • 3. 5 μl of test sample in 10% DMSO • 4. 10 μl of enzyme/substrate mixture
(§2) All PKC assays (except the PKC-mu and the PKC-nu assay) additionally contained 1 mM CaCl2, 4 mM EDTA, 5 μg/ml phosphatidylserine and 1 μg/ml 1,2-dioleyl-glycerol.
The CAMKID, CAMK2A, CAMK2B, CAMK2D, CAMK4, CAMKK1, CAMKK2, DAPK2, EEF2K, MYLK, MYLK2 and MYLK3 assays additionally contained 1 μg/ml Calmodulin and 0.5 mM CaCl2). The PRKG1 and PRKG2 assays additionally contained 1 μM cGMP. The DNA-PK assay additionally contained 2.5 μg/ml DNA. The protein kinase reaction cocktails were incubated at 30° C. for 60 minutes. The reaction was stopped with 50 μl of 2% (v/v) H3PO4, plates were aspirated and washed two times with 200 μl 0.9% (w/v) NaCl. Incorporation of 33Pi (counting of “cpm”) was determined with a microplate scintillation counter (Microbeta, Wallac). All protein kinase assays were performed with a BeckmanCoulter Biomek 2000/SL robotic system.
All protein kinases provided by ProQinase were expressed in Sf9 insect cells or in E. coli as recombinant GST-fusion proteins or His-tagged proteins, either as full-length or enzymatically active fragments. All kinases were produced from human cDNAs and purified by either GSHaffinity chromatography or immobilized metal. Affinity tags were removed from a number of kinases during purification. […]
(§3) For each kinase, the median value of the cpm of three wells was defined as “low control” (n=3). This value reflects unspecific binding of radioactivity to the plate in the absence of a protein kinase but in the presence of the substrate. […] The residual activity (in %) for each compounds well was calculated by using the following formula: […]

LTK = target: T2, LTK (Homo sapiens, UniProt P29376); test: 33PanQinase radiometric kinase assay, LTK; type: biochemical
T2 construct: purchased ProQinase; host or cells: Sf9 insect cells or E. coli
T2 sequence (P29376 17-864): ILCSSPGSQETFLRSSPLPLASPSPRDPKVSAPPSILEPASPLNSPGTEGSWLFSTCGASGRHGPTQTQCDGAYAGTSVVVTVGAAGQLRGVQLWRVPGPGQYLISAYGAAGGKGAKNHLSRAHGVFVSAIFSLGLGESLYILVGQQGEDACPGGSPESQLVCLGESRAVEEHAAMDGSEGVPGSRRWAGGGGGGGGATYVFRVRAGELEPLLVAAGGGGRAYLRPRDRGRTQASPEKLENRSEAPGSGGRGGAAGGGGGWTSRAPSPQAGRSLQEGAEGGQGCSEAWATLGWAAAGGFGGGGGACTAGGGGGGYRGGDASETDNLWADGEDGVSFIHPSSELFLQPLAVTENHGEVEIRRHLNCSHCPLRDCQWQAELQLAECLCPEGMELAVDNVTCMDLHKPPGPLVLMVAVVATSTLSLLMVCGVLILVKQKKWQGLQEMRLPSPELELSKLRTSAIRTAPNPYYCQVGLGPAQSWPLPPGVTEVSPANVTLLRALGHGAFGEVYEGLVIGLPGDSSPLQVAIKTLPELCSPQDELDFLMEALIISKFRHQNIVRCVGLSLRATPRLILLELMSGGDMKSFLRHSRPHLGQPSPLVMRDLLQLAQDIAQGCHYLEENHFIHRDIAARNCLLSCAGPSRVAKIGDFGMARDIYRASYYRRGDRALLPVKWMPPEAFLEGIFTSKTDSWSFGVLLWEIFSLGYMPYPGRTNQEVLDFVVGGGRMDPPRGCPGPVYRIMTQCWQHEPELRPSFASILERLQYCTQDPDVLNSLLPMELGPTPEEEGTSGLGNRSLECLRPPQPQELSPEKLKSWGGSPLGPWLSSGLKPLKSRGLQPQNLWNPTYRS
Experimental: as §1, §2
The CAMKID, CAMK2A, CAMK2B, CAMK2D, CAMK4, CAMKK1, CAMKK2, DAPK2, EEF2K, MYLK, MYLK2 and MYLK3 assays additionally contained 1 μg/ml Calmodulin and 0.5 mM CaCl2). The PRKG1 and PRKG2 assays additionally contained 1 μM cGMP. The DNA-PK assay additionally contained 2.5 μg/ml DNA. […] Incorporation of 33Pi (counting of “cpm”) was determined with a microplate scintillation counter (Microbeta, Wallac). […]
as §3

OCI-AML2 = test: Half-maximal growth inhibition (GI50), OCI-AML2; type: cell-based; conditions: Homo sapiens, 240 h, AML, M4, DNMT3A R635W, read-out: GI50 (nM), day 10
Experimental: Compounds A, B, C, D, and F were tested against various cell lines to probe their broad utility against cancer. Cortistatin A (CA) was also tested against the cell lines in a head to head fashion.

## C[C@]12CC=C3C=C4CC[C@@H](O)C[C@]45CC[C@]3(O5)[C@@H]1CC[C@@H]2c1ccc2ccncc2c1 [Compound A, (3S,3aR,9R,10aR,12aS,12bR)-3-(isoquinolin-7-yl)-3a-methyl-1,2,3,3a,4,7,8,9,10,11,12,12b-dodecahydro-10a,12a-epoxybenzo[4,5]cyclohepta[1,2-e]inden-9-ol]
MUSK; 1 μM, 2 replicates, read-out: average percent inhibition of MUSK
  inhibition at 1 µM: > 50%
MUSK; 1 μM, single replicates
  percent inhibition of MUSK, replicates: 36% and 111%
MUSK; up to 10 μM
  inhibition of MUSK upon retesting: not inhibited
LTK; 1 μM, 2 replicates, read-out: average percent inhibition of LTK
  inhibition at 1 µM: > 50%
LTK; up to 10 μM
  inhibition of LTK upon retesting: not inhibited
OCI-AML2
  GI50: 4 nM
